Measurements: patent US9693556B2, “Herbicidal pyridazinone derivatives” (SYNGENTA LIMITED, priority 2011, dated 2017)

How the values were obtained:
Assay type in all cases: in vivo
[1] = system: Alopecurus myosuroides (ALOMY); assay: Pre-emergence herbicidal glasshouse test on Alopecurus myosuroides; conditions: pre-emergence; 1000 g/h; evaluated after 13 days
Summary of the method: (§1)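 Scored on a five-point scale (1 = 0-19% to 5 = 80-100% damage) 13 days after treatment. Application rate 1000 g/h in acetone/water (50:50) containing 0.5% Tween 20, sprayed one day post-sowing for pre-emergence or eight days for post-emergence; glasshouse at 24/16° C, 14 h light, 65% humidity.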

[2] = system: Solanum nigrum (SOLNI); assay: Post-emergence herbicidal glasshouse test on Solanum nigrum; conditions: post-emergence; 1000 g/h; evaluated after 13 days
Summary of the method: as §1

[3] = system: Amaranthus retoflexus (AMARE); assay: Pre-emergence herbicidal glasshouse test on Amaranthus retoflexus; conditions: pre-emergence; 1000 g/h; evaluated after 13 days
Summary of the method: as §1

[4] = system: Ipomoea hederacea (IPOHE); assay: Pre-emergence herbicidal glasshouse test on Ipomoea hederacea; conditions: pre-emergence; 1000 g/h; evaluated after 13 days
Summary of the method: as §1

[5] = system: Echinochloa crus-galli (ECHCG); assay: Pre-emergence herbicidal glasshouse test on Echinochloa crus-galli; conditions: pre-emergence; 1000 g/h; evaluated after 13 days
Summary of the method: as §1

[6] = system: Alopecurus myosuroides (ALOMY); assay: Post-emergence herbicidal glasshouse test on Alopecurus myosuroides; conditions: post-emergence; 1000 g/h; evaluated after 13 days
Summary of the method: as §1

[7] = system: Amaranthus retoflexus (AMARE); assay: Post-emergence herbicidal glasshouse test on Amaranthus retoflexus; conditions: post-emergence; 1000 g/h; evaluated after 13 days
Summary of the method: as §1

[8] = system: Setaria faberi (SETFA); assay: Post-emergence herbicidal glasshouse test on Setaria faberi; conditions: post-emergence; 1000 g/h; evaluated after 13 days
Summary of the method: as §1

[9] = system: Setaria faberi (SETFA); assay: Pre-emergence herbicidal glasshouse test on Setaria faberi; conditions: pre-emergence; 1000 g/h; evaluated after 13 days
Summary of the method: as §1

[10] = system: Ipomoea hederacea (IPOHE); assay: Post-emergence herbicidal glasshouse test on Ipomoea hederacea; conditions: post-emergence; 1000 g/h; evaluated after 13 days
Summary of the method: as §1

[11] = system: Solanum nigrum (SOLNI); assay: Pre-emergence herbicidal glasshouse test on Solanum nigrum; conditions: pre-emergence; 1000 g/h; evaluated after 13 days
Summary of the method: as §1

[12] = system: Echinochloa crus-galli (ECHCG); assay: Post-emergence herbicidal glasshouse test on Echinochloa crus-galli; conditions: post-emergence; 1000 g/h; evaluated after 13 days
Summary of the method: as §1

## CSc1ccn(-c2cnn(C)c(=O)c2O)c(=O)c1 [Compound 1.027]
[1]
  PRE Application ALOMY herbicidal damage (five point scale): 1 (1=0-19% damage)
[2]
  POST Application SOLNI herbicidal damage (five point scale): 5 (5=80-100% damage)
[3]
  PRE Application AMARE herbicidal damage (five point scale): 5 (5=80-100% damage)
[4]
  PRE Application IPOHE herbicidal damage (five point scale): 1 (1=0-19% damage)
[5]
  PRE Application ECHCG herbicidal damage (five point scale): 5 (5=80-100% damage)
[6]
  POST Application ALOMY herbicidal damage (five point scale): 1 (1=0-19% damage)
[7]
  POST Application AMARE herbicidal damage (five point scale): 5 (5=80-100% damage)
[8]
  POST Application SETFA herbicidal damage (five point scale): 5 (5=80-100% damage)
[9]
  PRE Application SETFA herbicidal damage (five point scale): 3 (3=40-59% damage)
[10]
  POST Application IPOHE herbicidal damage (five point scale): 5 (5=80-100% damage)
[11]
  PRE Application SOLNI herbicidal damage (five point scale): 4 (4=60-79% damage)
[12]
  POST Application ECHCG herbicidal damage (five point scale): 5 (5=80-100% damage)

## C=C(C)Cn1cccc(-c2cnn(C)c(=O)c2O)c1=O [Compound 9.007]
[1]
  PRE Application ALOMY herbicidal damage (five point scale): 1 (1=0-19% damage)
[2]
  POST Application SOLNI herbicidal damage (five point scale): 4 (4=60-79% damage)
[3]
  PRE Application AMARE herbicidal damage (five point scale): 1 (1=0-19% damage)
[4]
  PRE Application IPOHE herbicidal damage (five point scale): 1 (1=0-19% damage)
[5]
  PRE Application ECHCG herbicidal damage (five point scale): 1 (1=0-19% damage)
[6]
  POST Application ALOMY herbicidal damage (five point scale): 1 (1=0-19% damage)
[7]
  POST Application AMARE herbicidal damage (five point scale): 3 (3=40-59% damage)
[8]
  POST Application SETFA herbicidal damage (five point scale): 2 (2=20-39% damage)
[9]
  PRE Application SETFA herbicidal damage (five point scale): 1 (1=0-19% damage)
[10]
  POST Application IPOHE herbicidal damage (five point scale): 2 (2=20-39% damage)
[11]
  PRE Application SOLNI herbicidal damage (five point scale): 1 (1=0-19% damage)
[12]
  POST Application ECHCG herbicidal damage (five point scale): 1 (1=0-19% damage)

## Cc1cccc(-c2c(C(F)(F)F)ccn(-c3cnn(C)c(=O)c3O)c2=O)c1 [Compound 1.038, 4-hydroxy-2-methyl-5-[3-(m-tolyl)-2-oxo-4-(trifluoromethyl)-1-pyridyl]pyridazin-3-one]
[1]
  PRE Application ALOMY herbicidal damage (five point scale): 3 (3=40-59% damage)
[2]
  POST Application SOLNI herbicidal damage (five point scale): 5 (5=80-100% damage)
[3]
  PRE Application AMARE herbicidal damage (five point scale): 5 (5=80-100% damage)
[4]
  PRE Application IPOHE herbicidal damage (five point scale): 1 (1=0-19% damage)
[5]
  PRE Application ECHCG herbicidal damage (five point scale): 5 (5=80-100% damage)
[6]
  POST Application ALOMY herbicidal damage (five point scale): 4 (4=60-79% damage)
[7]
  POST Application AMARE herbicidal damage (five point scale): 5 (5=80-100% damage)
[8]
  POST Application SETFA herbicidal damage (five point scale): 5 (5=80-100% damage)
[9]
  PRE Application SETFA herbicidal damage (five point scale): 3 (3=40-59% damage)
[10]
  POST Application IPOHE herbicidal damage (five point scale): 4 (4=60-79% damage)
[11]
  PRE Application SOLNI herbicidal damage (five point scale): 5 (5=80-100% damage)
[12]
  POST Application ECHCG herbicidal damage (five point scale): 4 (4=60-79% damage)

## Cn1ncc(-c2ccc(Cl)c(F)c2Cl)c(O)c1=O [Compound 1.092]
[1]
  PRE Application ALOMY herbicidal damage (five point scale): 1 (1=0-19% damage)
[2]
  POST Application SOLNI herbicidal damage (five point scale): 2 (2=20-39% damage)
[3]
  PRE Application AMARE herbicidal damage (five point scale): 1 (1=0-19% damage)
[4]
  PRE Application IPOHE herbicidal damage (five point scale): 1 (1=0-19% damage)
[5]
  PRE Application ECHCG herbicidal damage (five point scale): 1 (1=0-19% damage)
[6]
  POST Application ALOMY herbicidal damage (five point scale): 1 (1=0-19% damage)
[7]
  POST Application AMARE herbicidal damage (five point scale): 1 (1=0-19% damage)
[8]
  POST Application SETFA herbicidal damage (five point scale): 1 (1=0-19% damage)
[9]
  PRE Application SETFA herbicidal damage (five point scale): 1 (1=0-19% damage)
[10]
  POST Application IPOHE herbicidal damage (five point scale): 2 (2=20-39% damage)
[11]
  PRE Application SOLNI herbicidal damage (five point scale): 1 (1=0-19% damage)
[12]
  POST Application ECHCG herbicidal damage (five point scale): 1 (1=0-19% damage)
